Measurements reported in patent publication US5120831A, “Metal-peptide compositions” (ProCyte Corporation, priority 1989, dated 1992).
Entries after “also recorded” stand apart in the source; their conditions may differ.

How the values were obtained:
[1] = tested on: hair growth; assay: Stimulation of hair growth in shaved mice by subdermal/intradermal injection; format: in vivo; settings: for significant acceleration of hair growth within, following injection: injected once; for hair growth (photograph of injected mice): visual, injection sites versus surrounding shaved areas; for % POS. RESPONSE: hair growth at both injection sites = positive; for significant acceleration of hair growth within, following the injection: Example 12: 500 and 1000 micrograms per mouse
From the text: Increasing doses of glycyl-L-histidyl-L-lysyl-L-valyl-L-phenylalanyl-L-valine:copper(II) in aqueous solution was infiltrated under the skin in two locations. Mice are examined daily for signs of hair growth in the shaved area and at the injection sites. […] Hair growth at both injection sites is considered a positive response.
Mice were shaved and injected in two locations with an aqueous solution of glycyl-L-histidyl-L-lysine octyl ester:metal ion (GHL octyl:metal ion) at a ratio of peptide to metal ion of 2:1. A dose of 500 micrograms was injected per mouse.
Hair growth at both injection sites is considered a positive response.
Mice were shaved and injected in two locations with an aqueous solution of L-lysyl-L-histidyl-glycine octyl ester:copper(II) (LHG Octyl:Cu) and L-lysyl-L-histidyl-glycyl-L-L-valyl-L-phenylalanyl-L-valine:Cu (LGHVFV:Cu) at a ratio of peptide to metal ion of 2:1, and at a dose of 500 and 1000 micrograms per mouse. Hair growth at both injection sites is considered a positive response.
Mice were shaved and injected intradermally in two locations with various doses of glycyl-L-(3-methyl)-histidyl-L-lysyl-glycyl-L-tryptophan:copper(II). […] Hair growth at both injection sites is considered a positive response.
Mice were shaved and injected once with glycyl-L-histidyl-L-lysine n-octyl ester:copper(II) at a dose of 500 micrograms per mouse.
A group of ten mice were shaved and injected once with glycyl-L-histidyl-L-lysine decyl ester:copper(II) at a dose of 500 micrograms per mouse.
A group of 10 mice were shaved and injected once with glycyl-L-histidyl-L-lysine palmityl ester:copper(II) at a dose of 500 micrograms per mose.

[2] = tested on: hair follicles and subcutaneous fat layer; assay: Histological evaluation of skin biopsies through the area of accelerated hair growth; format: in vivo, mice; settings: for hair follicles in histological sections / subcutaneous fat layer in histological sections: skin biopsy through the site of injection / area of accelerated hair growth
From the text: Moreover, the surrounding skin contains telogen state follicles resting in the dermal layer, and a gradation of effect is observed as you move closer to the injection site. […] FIG. 4 is a photograph which illustrates the histological section from a mouse injection with glycyl-L-histidyl-L-lysyl-L-valyl-L-phenylalanyl-L-valine:copper(II). The area of injection is on the right side of the photograph. A decrease in hair follicle density and the subcutaneous fat layer is observed at increasing distance from the injection site.
It is known that the thickness of this fat layer is directly associated with hair growth. This increase in subcutaneous fat is shown by taking a biopsy sample at day 21 through the area and sectioning for histology slides. […] The injected area is on the right with the adjacent uninjected area on the left of the photograph.
A group of ten mice were shaved and injected once with glycyl-L-histidyl-L-lysine decyl ester:copper(II) at a dose of 500 micrograms per mouse. […]

[3] = tested on: hair growth; assay: Stimulation of hair growth in shaved mice by daily topical application; format: in vivo; settings: treated daily; 1% (w/w) in Nonocynol-9 5% / Unibase Cream 94%; peptide to metal ion 2:1
From the text: Hair growth at the treated site is considered a positive response.

[4] = Exp. 1, dose 500 mg, intradermally in two locations
[5] = two locations, peptide to metal ion 2:1
[6] = dose 0.5 mg, two locations, peptide to metal ion 2:1
[7] = dose 1.0 mg, two locations, peptide to metal ion 2:1

## glycyl-L-histidyl-L-lysine decyl ester:copper(II)
[1]; 500 micrograms per mouse
  significant acceleration of hair growth within, following injection: 2-3 weeks
[1]
  hair growth (photograph of injected mice): stimulated hair growth
[2]; biopsy of area of accelerated growth, 500 micrograms per mouse, injected once
  hair shaft units within the subcutaneous fat layer: marked proliferation of hair shaft units; also recorded: marked proliferation of hair shafts
[2]
  hair follicles in histological sections: increased hair growth, fat cell layer and increased hair follicle density

## glycyl-L-histidyl-L-lysine palmityl ester:copper(II)
[1]; 500 micrograms per mouse
  significant acceleration of hair growth within, following injection: 2-3 weeks
[2]
  hair follicles in histological sections: large number of developing hair follicles within the subcutaneous fat layer

## glycyl-L-(3-methyl)-histidyl-L-lysyl-glycyl-L-tryptophan:copper(II)
[1]; Example 14: various doses, intradermally in two locations
  hair growth noted within, following the injections: 2-3 weeks
[1]; [4]
  POSITIVE RESPONSE (No. Positive/Total No.): 5/5
  POSITIVE RESPONSE, percent: 100%
[1]; Exp. 2, dose 250 mg, intradermally in two locations
  POSITIVE RESPONSE, percent: 100%
[1]; Exp. 2, intradermally in two locations
  POSITIVE RESPONSE (No. Positive/Total No.): 5/5

## glycyl-L-histidyl-L-lysyl-L-valyl-L-phenylalanyl-L-valine:copper(II)
[3]
  mice showing accelerated hair growth in the area of topical application (number): Four of the five
  mice showing accelerated hair growth in the area of topical application (percent): 80%
[1]; 0.5 mg injection
  diameter of circle of growth: approximately 0.5 cm
[1]; dose 0.10 mg/inj., injected under the skin in two locations
  % POS. RESPONSE: 86%
[1]; dose 0.25 mg/inj., two locations
  % POS. RESPONSE: 89%
[1]; dose 0.50 mg/inj., two locations
  % POS. RESPONSE: 89%
[1]; dose 1.00 mg/inj., two locations
  % POS. RESPONSE: 95%
[1]; following injection
  active hair growth takes place between: 14 to 20 days
  indications of hair growth seen within: ≤ 10 days
  maximum effect seen by: ≤ 28 days
[1]; increasing doses, two locations, shaved on day 1
  stimulated hair growth at and around the injection site by days: 14 to 21 days
[1]; single injection site, versus control mouse injected with saline
  hair growth at 25 days from the date of injection (photograph): accelerated hair growth
[1]; summary of series of experiments of Table 1, no response with saline
  positive response, % of the mice injected: 80-90%
[1]
  hair growth (photograph of injected mice): accelerated hair growth at two injection sites
[2]
  hair follicles in histological sections: anagen state follicles
  subcutaneous fat layer in histological sections: thickening of the fat layer

## L-lysyl-L-histidyl-glycine octyl ester:copper(II) [LHG-Octyl:Cu]
[1]; [5]
  significant acceleration of hair growth within, following the injection: 2-3 weeks
[1]; [6]
  POSITIVE RESPONSE (No. Positive/Total No.): 8/8
  POSITIVE RESPONSE, percent: 100%
[1]; [7]
  POSITIVE RESPONSE (No. Positive/Total No.): 5/5
  POSITIVE RESPONSE, percent: 100%

## L-lysyl-L-histidyl-glycyl-L-valyl-L-phenylalanyl-L-valine:copper(II) [LHGVFV:Cu]
[1]; [5]
  significant acceleration of hair growth within, following the injection: 2-3 weeks
[1]; [6]
  POSITIVE RESPONSE (No. Positive/Total No.): 9/10
  POSITIVE RESPONSE, percent: 90%
[1]; [7]
  POSITIVE RESPONSE (No. Positive/Total No.): 5/5
  POSITIVE RESPONSE, percent: 100%

## glycyl-L-histidyl-L-lysine octyl ester:copper(II) [GHL Octyl:Cu(II)]
[1]; 500 micrograms per mouse, two locations, peptide to metal ion 2:1, hair growth at both sites = positive
  POSITIVE RESPONSE (No. Positive/Total No.): 4/4
[1]; 500 micrograms per mouse
  significant acceleration of hair growth within, following injection: 2-3 weeks
[2]; biopsy at day 21, 500 micrograms per mouse, injected once, versus adjacent uninjected area
  increase in the subcutaneous fat layer in the skin near the injection site (measurements): approximately threefold increase
[2]; biopsy at day 21, injected area versus adjacent uninjected area
  number and size of the fat cells: obvious increase in both the number and size of the fat cells
[2]; listed as glycyl-L-histidyl-L-lysine n-octyl ester:copper(II)
  subcutaneous fat layer in histological sections: significant increase in the thickness of the subcutaneous fat layer
